{"source": "patent US7601746B2", "about": "(Shionogi & Co., Ltd., priority 2003, dated 2009)", "target": "T1, human TPO receptor (hTPOR) (Homo sapiens, UniProt P40238)", "T1 construct": "expressed in transfected cells; host or cells: BaF-B03 (murine IL-3 dependent cell line)", "T1 sequence (P40238 26-635)": "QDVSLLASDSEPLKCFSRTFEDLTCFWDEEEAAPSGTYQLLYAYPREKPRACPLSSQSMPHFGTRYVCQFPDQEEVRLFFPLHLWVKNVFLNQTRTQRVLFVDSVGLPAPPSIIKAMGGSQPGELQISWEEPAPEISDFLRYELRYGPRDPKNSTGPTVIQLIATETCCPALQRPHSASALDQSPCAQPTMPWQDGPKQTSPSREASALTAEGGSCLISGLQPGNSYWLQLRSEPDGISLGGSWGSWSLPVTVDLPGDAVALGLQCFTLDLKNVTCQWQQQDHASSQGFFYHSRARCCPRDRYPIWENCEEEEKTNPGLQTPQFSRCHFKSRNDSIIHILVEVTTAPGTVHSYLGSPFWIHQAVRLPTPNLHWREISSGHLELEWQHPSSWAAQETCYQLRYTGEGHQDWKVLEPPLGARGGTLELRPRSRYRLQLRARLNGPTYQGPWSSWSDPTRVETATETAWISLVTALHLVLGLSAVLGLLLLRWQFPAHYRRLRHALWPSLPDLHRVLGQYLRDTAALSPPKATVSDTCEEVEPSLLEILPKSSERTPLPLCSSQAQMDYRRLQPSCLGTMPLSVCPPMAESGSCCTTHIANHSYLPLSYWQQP", "experiment": "Thrombopoietic activity: proliferation of TPO dependent BaF/hTPOR cells (WST-1, absorbance at 450 nm)", "assay_type": "cell-based", "settings": "20 h + 4 h WST-1, ED50 = half concentration of the concentration showing the maximum thrombopoietic activity", "how_it_was_run": "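Proliferation read-out: WST-1 absorbance at 450 nm after 20 h compound exposure plus 4 h reagent, using IL-3-deprived BaF/hTPOR cells (5×10^4 per well) dependent on human TPO receptor signalling. ED50 defined as half the concentration producing maximal activity.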", "note": "pEC50: −log10 of the molar value.", "data": [{"smiles": "CCCCCC(OC)c1cccc(-c2csc(NC(=O)c3cc(F)c(/C=C(\\C)C(=O)O)c(F)c3)n2)c1OC", "note": "(stereo not shown) [Compound B347, (E)-3-(2,6-difluoro-4-{4-[2-methyloxy-3-(1-methyloxyhexyl)phenyl]thiazol-2-ylcarbamoyl}phenyl)-2-methylacrylic acid]", "values": [{"measurement": "pEC50", "setting": "Table 1", "value": 7.73}]}, {"smiles": "COc1cccc(-c2csc(NC(=O)c3cc(Cl)c(/C=C(\\C)C(=O)O)c(Cl)c3)n2)c1F", "note": "[Compound B2018, (E)-3-{2,6-dichloro-4-[4-(2-fluoro-3-methyloxyphenyl)thiazol-2-ylcarbamoyl]phenyl}-2-methylacrylic acid]", "values": [{"measurement": "pEC50", "setting": "Table 2", "value": 7.63}]}, {"smiles": "CCC(CC)COCCCc1cccc(-c2csc(NC(=O)c3cc(F)c(C=C(C)C(=O)O)c(F)c3)n2)c1F", "note": "[Compound B43, 3-[2,6-difluoro-4-(4-{3-[3-(2-ethylbutyloxy)propyl]-2-fluorophenyl}thiazol-2-ylcarbamoyl}phenyl)-2-methylacrylic acid]", "values": [{"measurement": "pEC50", "setting": "Table 1", "value": 8.78}]}, {"smiles": "CCCCCCCCCC(OC)c1cccc(-c2csc(NC(=O)c3cc(F)c(/C=C(\\C)C(=O)O)c(F)c3)n2)c1OCC", "note": "(stereo not shown) [Compound B2099, (E)-3-(4-{4-[2-ethyloxy-3-(1-methyloxydecyl)phenyl]thiazol-2-ylcarbamoyl}-2,6-difluorophenyl)-2-methylacrylic acid]", "values": [{"measurement": "pEC50", "setting": "Table 1", "value": 8.54}]}, {"smiles": "COC(CCc1cccc2c1CCc1sc(NC(=O)c3cc(F)c(C=C(C)C(=O)O)c(F)c3)nc1-2)C(C)(C)C", "note": "(stereo not shown) [Compound A4, 3-{2,6-difluoro-4-[4,5-dihydro-6-(3-methyloxy-4,4-dimethylpentyl)naphtho[1,2-d]thiazol-2-ylcabamoyl]phenyl}-2-methylacrylic acid]", "values": [{"measurement": "pEC50", "setting": "Table 1", "value": 8.74}]}, {"smiles": "CO/C(=C\\c1c(Cl)cc(C(=O)Nc2nc(-c3cccc(CCCOCC(C)(C)C)c3F)c(OC)s2)cc1Cl)C(=O)O", "note": "[Compound B1905]", "values": [{"measurement": "pEC50", "setting": "Table 2", "value": 7.57}]}, {"smiles": "CCCCOCCCc1cccc(-c2csc(NC(=O)c3cc(Cl)c(C=C(C)C(=O)O)c(Cl)c3)n2)c1F", "note": "[Compound B93, 3-(4-{4-[3-(3-n-butyloxypropyl)-2-fluorophenyl]thiazol-2-ylcarbamoyl}-2,6-dichlorophenyl]-2-methylacrylic acid]", "values": [{"measurement": "pEC50", "setting": "Table 1", "value": 9.04}]}, {"smiles": "CC(=Cc1c(Cl)cc(C(=O)Nc2nc(-c3cccc(CCCOCCC4CCCC4)c3F)cs2)cc1Cl)C(=O)O", "note": "[Compound B89, 3-[2,6-dichloro-4-(4-[3-[3-(2-cyclopentylethyloxy)propyl]-2-fluorophenyl]thiazol-2-ylcarbamoyl)phenyl]-2-methylacrylic acid]", "values": [{"measurement": "pEC50", "setting": "Table 1", "value": 8.82}]}, {"smiles": "CCCCCCOC(C)c1cccc(-c2csc(NC(=O)c3cc(Cl)c(C=C(C)C(=O)O)c(Cl)c3)n2)c1F", "note": "(stereo not shown) [Compound B99, 3-(2,6-dichloro-4-{4-[2-fluoro-3-(1-n-hexyloxyethyl)phenyl]thiazol-2-ylcarbamoyl)phenyl]-2-methylacrylic acid]", "values": [{"measurement": "pEC50", "setting": "Table 1", "value": 9.23}]}, {"smiles": "CCCCCCCOCCc1cccc(-c2csc(NC(=O)c3cc(F)c(/C=C(\\C)C(=O)O)c(F)c3)n2)c1OC", "note": "[Compound B1952, (E)-3-(2,6-difluoro-4-{4-[3-(2-heptyloxyethyl)-2-methyloxyphenyl]thiazol-2-ylcarbamoyl}phenyl)-2-methylacrylic acid]", "values": [{"measurement": "pEC50", "setting": "Table 1", "value": 7.99}]}, {"smiles": "CCCOCCCc1cccc(-c2nc(NC(=O)c3cc(Cl)c(/C=C(\\C)C(=O)O)c(Cl)c3)sc2OC)c1", "note": "[Compound B1863, (E)-3-(2,6-dichloro-4-{5-methyloxy-4-[3-(3-propyloxypropyl)phenyl]thiazol-2-ylcarbamoyl}phenyl)-2-methylacrylic acid]", "values": [{"measurement": "pEC50", "setting": "Table 2", "value": 7.64}]}, {"smiles": "CCCCC(OCCC)c1cccc(-c2csc(NC(=O)c3cc(Cl)c(C=C(C)C(=O)O)c(Cl)c3)n2)c1F", "note": "(stereo not shown) [Compound B86, 3-(2,6-dichloro-4-{4-[2-fluoro-3-(1-n-propyloxypentyl)phenyl]thiazol-2-ylcarbamoyl}phenyl)-2-methylacrylic acid]", "values": [{"measurement": "pEC50", "setting": "Table 1", "value": 9.20}]}, {"smiles": "CCCCCCCCCC(OC)c1cccc(-c2csc(NC(=O)c3cc(F)c(C=C(C)C(=O)O)c(F)c3)n2)c1F", "note": "(stereo not shown) [Compound B9, 3-(2,6-difluoro-4-{4-[2-fluoro-3-(1-methyloxydecyl)phenyl]thiazol-2-ylcarbamoyl}phenyl)-2-methylacrylic acid]", "values": [{"measurement": "pEC50", "setting": "Table 1", "value": 8.80}]}, {"smiles": "COC(CCC(C)C)c1cccc(-c2csc(NC(=O)c3cc(F)c(C=C(C)C(=O)O)c(F)c3)n2)c1F", "note": "(stereo not shown) [Compound B11, 3-(2,6-difluoro-4-{4-[2-fluoro-3-(1-methyloxy-4-methylpentyl)phenyl]thiazol-2-ylcarbamoyl}phenyl)-2-methylacrylic acid]", "values": [{"measurement": "pEC50", "setting": "Table 1", "value": 9.09}]}, {"smiles": "COc1c(CCCOCC2CCCC2)cccc1-c1csc(NC(=O)c2cc(Cl)c(/C=C(\\C)C(=O)O)c(Cl)c2)n1", "note": "[Compound B1949, (E)-3-(2,6-dichloro-4-{4-[3-(3-cyclopentylmethyloxypropyl)-2-methyloxyphenyl]thiazol-2-ylcarbamoyl}phenyl)-2-methylacrylic acid]", "values": [{"measurement": "pEC50", "setting": "Table 1", "value": 7.88}]}, {"smiles": "COc1c(CCCOCC2CCC2)cccc1-c1csc(NC(=O)c2cc(Cl)c(/C=C(\\C)C(=O)O)c(Cl)c2)n1", "note": "[Compound B1855, (E)-3-(2,6-dichloro-4-{4-[3-(3-cyclobutylmethyloxypropyl)-2-methyloxyphenyl]thiazol-2-ylcarbamoyl}phenyl)-2-methylacrylic acid]", "values": [{"measurement": "pEC50", "setting": "Table 2", "value": 7.67}]}, {"smiles": "COc1c(COCC(C)(C)C)cccc1-c1csc(NC(=O)c2cc(Cl)c(/C=C(\\C)C(=O)O)c(Cl)c2)n1", "note": "[Compound B2021, (E)-3-(2,6-dichloro-4-{4-[3-(2,2-dimethylpropyloxymethyl)-2-methyloxyphenyl]thiazol-2-ylcarbamoyl}phenyl)-2-methylacrylic acid]", "values": [{"measurement": "pEC50", "setting": "Table 1", "value": 8.22}]}, {"smiles": "CC(=Cc1c(Cl)cc(C(=O)Nc2nc(-c3cccc(CCCOC(C)C)c3F)cs2)cc1Cl)C(=O)O", "note": "[Compound B94, 3-(2,6-dichloro-4-{4-[2-fluoro-3-(3-isopropyloxypropyl)phenyl]thiazol-2-ylcarbamoyl)phenyl]-2-methylacrylic acid]", "values": [{"measurement": "pEC50", "setting": "Table 1", "value": 9.01}]}, {"smiles": "CCCCOCCc1cccc(-c2csc(NC(=O)c3cc(Cl)c(/C=C(\\C)C(=O)O)c(Cl)c3)n2)c1OC", "note": "[Compound B1836, (E)-3-(4-{4-[3-(2-butyloxyethyl)-2-methyloxyphenyl]thiazol-2-ylcarbamoyl}-2,6-dichlorophenyl)-2-methylacrylic acid]", "values": [{"measurement": "pEC50", "setting": "Table 2", "value": 7.68}]}, {"smiles": "COc1c(CCCOCC(C)(C)C)cccc1-c1csc(NC(=O)c2cc(F)c(/C=C(\\C)C(=O)O)c(F)c2)n1", "note": "[Compound B488]", "values": [{"measurement": "pEC50", "setting": "Table 1", "value": 7.80}]}, {"smiles": "CC(=Cc1c(F)cc(C(=O)Nc2nc(-c3cccc(CCCOCCCC(C)C)c3F)cs2)cc1F)C(=O)O", "note": "[Compound B39, 3-[2,6-difluoro-4-(4-(2-fluoro-3-[3-(4-methylpentyloxy)propyl]phenyl}thiazol-2-ylcarbamoyl)phenyl]-2-methylacrylic acid]", "values": [{"measurement": "pEC50", "setting": "Table 1", "value": 9.00}]}, {"smiles": "CCCCCCOCc1cccc(-c2csc(NC(=O)c3cc(Cl)c(/C=C(\\OC)C(=O)O)c(Cl)c3)n2)c1OC", "note": "[Compound B1994, (Z)-3-{2,6-dichloro-4-[4-(3-hexyloxymethyl-2-methyloxyphenyl)thiazol-2-ylcarbamoyl]phenyl}-2-methyloxyacrylic acid]", "values": [{"measurement": "pEC50", "setting": "Table 1", "value": 7.85}]}, {"smiles": "CCCCCOC(C)c1cccc(-c2csc(NC(=O)c3cc(F)c(C=C(C)C(=O)O)c(F)c3)n2)c1F", "note": "(stereo not shown) [Compound B31, 3-(2,6-difluoro-4-{4-[2-fluoro-3-(1-n-pentyloxyethyl)phenyl]thiazol-2-ylcarbamoyl}phenyl)-2-methylacrylic acid]", "values": [{"measurement": "pEC50", "setting": "Table 1", "value": 9.07}]}, {"smiles": "CCCCCOCc1cccc(-c2csc(NC(=O)c3cc(Cl)c(C=C(C)C(=O)O)c(Cl)c3)n2)c1F", "note": "[Compound B77, 3-{2,6-dichloro-4-[4-(2-fluoro-3-{n-pentyloxymethyl}phenyl)thiazol-2-ylcarbamoyl]phenyl}-2-methylacrylic acid]", "values": [{"measurement": "pEC50", "setting": "Table 1", "value": 8.51}]}, {"smiles": "CCCOC(CCC)c1cccc(-c2csc(NC(=O)c3cc(Cl)c(C=C(C)C(=O)O)c(Cl)c3)n2)c1F", "note": "(stereo not shown) [Compound B78, 3-(2,6-dichloro-4-{4-[2-fluoro-3-(1-n-propyloxybutyl)phenyl]thiazol-2-ylcarbamoyl}phenyl)-2-methylacrylic acid]", "values": [{"measurement": "pEC50", "setting": "Table 1", "value": 9.01}]}, {"smiles": "CO/C(=C\\c1c(Cl)cc(C(=O)Nc2nc(-c3cccc(COCC(C)(C)C)c3OC)cs2)cc1Cl)C(=O)O", "note": "[Compound B2022, (Z)-3-(2,6-dichloro-4-{4-[3-(2,2-dimethylpropyloxymethyl)-2-methyloxyphenyl]thiazol-2-ylcarbamoyl}phenyl)-2-methyloxyacrylic acid]", "values": [{"measurement": "pEC50", "setting": "Table 1", "value": 7.81}]}, {"smiles": "CO/C(=C\\c1c(F)cc(C(=O)Nc2nc(-c3cccc(CCOCCC(C)C)c3OC)cs2)cc1F)C(=O)O", "note": "[Compound B1956]", "values": [{"measurement": "pEC50", "setting": "Table 1", "value": 7.82}]}, {"smiles": "COc1c(-c2csc(NC(=O)c3cc(F)c(/C=C(\\C)C(=O)O)c(F)c3)n2)cccc1C(CC(C)(C)C)OC", "note": "(stereo not shown) [Compound B349, (E)-3-(2,6-difluoro-4-{4-[2-methyloxy-3-(1-methyloxy-3,3-dimethylbutyl)phenyl]thiazol-2-ylcarbamoyl}phenyl)-2-methylacrylic acid]", "values": [{"measurement": "pEC50", "setting": "Table 1", "value": 7.77}]}]}
